Tests used:
LS411N xenograft tumors = test: in vivo anti-tumor activity on LS411N xenograft tumors (BRAF V600E colorectal model); set-up: species or system BALB/c Nude mice; details: monotherapy PO QD, 20 mpk, 50 mpk or 140 mpk; compared with encorafenib 24 mpk; FIG. 2
From the text: (§1) FIG. 1 illustrates a schematic representation of the study design reported in FIG. 2 to and specifies the dosage regime that was used for treating the different cohorts in a colorectal tumour model bearing LS411N xenografts, according to some embodiments. Both models are CRC models and present the BRAF V600E mutation.
FIG. 2 […], or of encorafenib at 24 mpk on LS411N xenograft tumors in BALB/c Nude mice (10 mice/cohort), according to some embodiments. Mice were, for example, treated (QD) until day 43 and the graphs express mean tumour volume [mm3] for the different cohorts.
(§2) FIG. 3 reports in vivo anti-tumor activity of a combination of R07276389 at 140 mpk or of encorafenib at 24 mpk, in each instance with 20 mpk of cetuximab on LS411N xenograft tumors in BALB/c Nude mice (10 mice/cohort), according to some embodiments. Monotherapy controls were, for example, also included and the mice were treated (QD) until day 43 and the graph expresses mean tumour volume [mm3] for the different cohorts.
FIG. 4 reports in vivo anti-tumor activity of a combination of R07276389 at 60 mpk or of encorafenib at 24 mpk, in each instance with 20 mpk of cetuximab on LS411N xenograft tumors in BALB/c Nude mice (10 mice/cohort), according to some embodiments. […]

HT29 xenograft tumors = test: in vivo anti-tumor activity on HT29 xenograft tumors (BRAF V600E colorectal model); set-up: species or system BALB/c Nude mice; details: monotherapy PO QD, 140 mpk, 60 mpk or 30 mpk; compared with encorafenib 24 mpk; FIG. 6
From the text: as §1
FIG. […] Mice were, for example, treated (QD) until day 43 and the graph expresses mean tumour volume [mm3] for the different cohorts.
as §2, with “FIG. 7” for “FIG. 3”, “on HT29” for “on LS411N”
as §2, with “FIG. 8” for “FIG. 3”, “at 60” for “at 140”, “on HT29” for “on LS411N”, “cohorts. […]” for “cohorts.”

Structure (SMILES): Cn1cnc2ccc(Oc3c(F)ccc(NS(=O)(=O)N4CC[C@@H](F)C4)c3C#N)cc2c1=O [Compound R07276389, (3R)-N-[2-cyano-4-fluoro-3-(3-methyl-4-oxo-quinazolin-6-yl)oxy-phenyl]-3-fluoro-pyrrolidine-1-sulfonamide]
- tumour growth inhibition (LS411N xenograft tumors): dose-dependent tumour growth inhibition that was significantly higher when compared with encorafenib
- tumour growth inhibition (HT29 xenograft tumors): dose-dependent tumour growth inhibition that was significantly higher when compared with encorafenib

Reference: patent publication US20260207603A1, “COMBINATION THERAPY FOR CANCER TREATMENT” (Hoffmann-La Roche Inc., priority 2022, published 2026)
